Molecules are shown by their SMILES. Where only a bound is given, the exact number is not on record here.

In this experiment the target is T1, human CA-IV (Homo sapiens, UniProt P22748).
T1 construct: made in house; host or cells: Escherichia coli BL21(DE3)
T1 sequence (P22748 19-284 limits assumed): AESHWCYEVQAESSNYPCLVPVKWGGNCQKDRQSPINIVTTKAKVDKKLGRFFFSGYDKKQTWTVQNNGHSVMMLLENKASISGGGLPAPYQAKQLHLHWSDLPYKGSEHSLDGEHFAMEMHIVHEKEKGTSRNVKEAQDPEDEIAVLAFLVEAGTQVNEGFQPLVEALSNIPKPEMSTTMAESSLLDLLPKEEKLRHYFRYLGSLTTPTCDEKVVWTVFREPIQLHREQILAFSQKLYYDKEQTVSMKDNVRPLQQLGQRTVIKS
Put plainly: Carbonic Anhydrase-IV (CA-IV) Fluorescence Polarization Assay-IC50 Determination. The following applies: read-out: IC50_CAIV. It counts as binding. The protocol: Carbonic Anhydrase-IV (CA-IV) Fluorescence Polarization Assay-IC50 Determination
These cells were grown in Luria broth (LB) media (Biomyx) supplemented with 800 uM ZnCl2 at 37° C. until an O.D.600 of 0.7, at which point the cells were induced with 100 uM isopropyl-beta-D-thiogalactopyranoside (IPTG) for 20 hours at 20° C. The frozen pellet was resuspended in 50mM 2-morpholinoethanesulfonic acid (MES) at pH 6.0, 100 mM NaCl, 800 uM ZnCl2 and EDTA-Free protease inhibitors (Roche). The cells were lysed with a microfluidizer, the lysate was spun at 40,000 rpm for 45 minutes at 4° C., and the soluble fraction was dialyzed overnight at 4° C. in 50 mM MES pH 6.0, and 100 mM NaCl. The soluble fraction was then put over a 100 ml SP-Sepharose High Performance (GE Healthcare) column and eluted with a 50 mM MES pH 6.0, 750 mM NaCl gradient. The peak fractions were then concentrated, via an Amicon Ultra-4 10,000 MWCO (Millipore) spin column to 2.0 mL and loaded onto a Sephacryl S-100 High Resolution (GE Healthcare) column in 25 mM tris(hydroxymethyl)aminomethane hydrochloride (Tris-HCl) pH 7.0, and 100 mM NaCl. The peak fractions were then concentrated, via an Amicon Ultra-4 10,000 MWCO (Millipore) spin column, to 7.0 mg/mL and left exposed at room temperature overnight. […] T.; et al. Carbonic Anhydrase Inhibitors. Med. Res. Rev. […]
Assays were conducted in a final volume of 100 μL in 50 mM Tris/HCl (pH 7.6), 100 mM Na2SO4 and 0.005% Tween-20 in a 96-well black assay plate.
(In general: Fluorescence polarisation rises when a labelled molecule tumbles more slowly, as on binding a larger partner.)
On to `NS(=O)(=O)c1ccc(-n2nc(C(=O)O)cc2Cc2ccccc2)cc1` [pp-2a, 1-[4-(aminosulfonyl)phenyl]-5-benzyl-1H-pyrazole-3-carboxylic acid], for which the IC50 was determined as 492 nM.

On to `CN(Cc1cc(Cc2ccccc2)n(-c2ccc(S(N)(=O)=O)cc2F)n1)C1CCCCC1` [Example -1h, 4-(5-benzyl-3-{[cyclohexyl(methyl)amino]methyl}-1H-pyrazol-1-yl)-3-fluorobenzenesulfonamide], for which the IC50 was found to be 186 nM.

On to `NS(=O)(=O)c1ccc(-n2nc(CO)c3c2CCCC3)cc1` [qq-3d, 4-[3-(hydroxymethyl)-4,5,6,7-tetrahydro-1H-indazol-1-yl]benzenesulfonamide], for which the IC50 is at least 5000 nM.

Turning to `CCNC(=O)c1cc(C)n(-c2ccc(S(N)(=O)=O)cc2C(=O)NCc2ccccc2)n1` [KK-1h, 1-{4-(aminosulfonyl)-2-[(benzylamino)carbonyl]phenyl}-N-ethyl-5-methyl-1H-pyrazole-3-carboxamide], the IC50 was 2190 nM.

Regarding `NS(=O)(=O)c1ccc(-n2nc(CO)cc2Cc2ccccc2)c(F)c1` [qq-3, 4-[5-Benzyl-3-(hydroxymethyl)-1H-pyrazol-1-yl]-3-fluorobenzenesulfonamide], the IC50 worked out at 372 nM.

Consider `CCCCN(C)Cc1cc(Cc2ccccc2)n(-c2ccc(S(N)(=O)=O)cc2F)n1` [QQ-1j, 4-(5-benzyl-3-{[butyl(methyl)amino]methyl}-1H-pyrazol-1-yl)-3-fluorobenzenesulfonamide], for which the IC50 is 278 nM.

Consider `Cc1cc(C(=O)N2CCOCC2)nn1-c1ccc(S(N)(=O)=O)cc1CNCc1ccccc1` [LL-1a, 3-[(benzylamino)methyl]-4-(5-methyl-3-(morpholin-4-ylcarbonyl)-1H-pyrazol-1-yl]benzenesulfonamide], for which the IC50 is above 5000 nM.

For the molecule `COCCN(C)Cc1cc(Cc2cccc(C)c2)n(-c2ccc(S(N)(=O)=O)cc2F)n1` [PP-1b, 3-fluoro-4-[3-{[(2-methoxyethyl)(methyl)amino]methyl}-5-(3-methylbenzyl)-1H-pyrazol-1-yl]benzenesulfonamide], the IC50 came out at 145 nM.

Take `NS(=O)(=O)c1ccc(-n2nc(C(=O)O)cc2Cc2ccc(Cl)cc2)cc1` [pp-2b, 1-[4-(aminosulfonyl)phenyl]-5-(4-chlorobenzyl]-1H-pyrazole-3-carboxylic acid]: the IC50 turned out to be 459 nM.

Turning to `NS(=O)(=O)c1ccc(-n2nc(CN3CC=CCC3)cc2Cc2ccc(Br)cc2)c(F)c1` [QQ-1k, 4-[5-(4-bromobenzyl)-3-(3,6-dihydropyridin-1(2H)-ylmethyl)-1H-pyrazol-1-yl]-3-fluorobenzenesulfonamide], the IC50 is 253 nM.

For `NS(=O)(=O)c1ccc(-n2nc(CO)cc2Cc2ccccc2)cc1` [qq-3b, 4-[5-benzyl-3-(hydroxymethyl)-1H-pyrazol-1-yl]benzenesulfonamide], the IC50 was determined as 436 nM.

As for `NS(=O)(=O)c1ccc(-n2nc(CO)cc2Cc2ccc(Br)cc2)c(F)c1` [qq-3c, 4-[5-(4-bromobenzyl)-3-(hydroxymethyl)-1H-pyrazol-1-yl]-3-fluorobenzenesulfonamide], the IC50 was 468 nM.

As for `CCNC(=O)c1cc(C)n(-c2ccc(S(N)(=O)=O)cc2C(=O)NCC)n1` [KK-1m, 1-{4-(aminosulfonyl)-2-[(ethylamino)carbonyl]phenyl}-N-ethyl-5-methyl-1H-pyrazole-3-carboxamide], the IC50 is above 5000 nM.

Consider `CCCCN(C)Cc1cc(Cc2ccc(Cl)cc2)n(-c2ccc(S(N)(=O)=O)cc2)n1` [QQ-1n, 4-[3-{[butyl(methyl)amino]methyl}-5-(4-chlorobenzyl)-1H-pyrazol-1-yl]benzenesulfonamide], for which the IC50 turned out to be 455 nM.

For the molecule `CN(Cc1cc(Cc2ccccc2)n(-c2ccc(S(N)(=O)=O)cc2)n1)C1CCCCC1` [QQ-1m, 4-(5-benzyl-3-{[cyclohexyl(methyl)amino]methyl}-1H-pyrazol-1-yl)benzenesulfonamide], the IC50 stood at 314 nM.

Consider `NS(=O)(=O)c1ccc(-n2nc(C(F)(F)F)c3c2CCNC3)c(C(=O)NCc2ccncc2)c1` [KK-1n, 5-(aminosulfonyl)-N-(pyridin-4-ylmethyl)-2-[3-(trifluoromethyl)-4,5,6,7-tetrahydro-1H-pyrazolo[4,3-c]pyridin-1-yl]benzamide], for which the IC50 is above 5000 nM.

Regarding `Cc1cccc(Cc2cc(CN3CCC(F)(F)C3)nn2-c2ccc(S(N)(=O)=O)cc2F)c1` [PP-1, 4-[3-[(3,3-difluoropyrrolidin-1-yl)methyl]-5-(3-methylbenzyl)-1H-pyrazol-1-yl]-3-fluorobenzenesulfonamide], the IC50 was determined as 114 nM.

Take `CCCN(C)Cc1cc(Cc2ccccc2)n(-c2ccc(S(N)(=O)=O)cc2)n1` [QQ-1e, 4-(5-benzyl-3-{[methyl(propyl)amino]methyl}-1H-pyrazol-1-yl)benzenesulfonamide]: the IC50 came out at 379 nM.

Consider `NS(=O)(=O)c1ccc(-n2nc(C(F)(F)F)c3c2CCNC3)c(C(=O)NCc2ccccc2)c1` [KK-1p, 5-(aminosulfonyl)-N-benzyl-2-[3-(triflurormethyl)-4,5,6,7-tetrahydro-1H-pyrazolo[4,3-c]pyridin-1-yl]benzamide], for which the IC50 is above 5000 nM.

Consider `CCCN(C)Cc1cc(Cc2ccccc2)n(-c2ccc(S(N)(=O)=O)cc2F)n1` [QQ-1, 4-(5-benzyl-3-{[methyl(propyl)amino]methyl}-1H-pyrazol-1-yl)-3-fluorobenzenesulfonamide], for which the IC50 worked out at 301 nM.

As for `CCNC(=O)c1cc(C)n(-c2ccc(S(N)(=O)=O)cc2C(=O)OC(C)C)n1` [KK-1r], the IC50 was found to be 1310 nM.

On to `CCNC(=O)c1cc(C)n(-c2ccc(S(N)(=O)=O)cc2C(=O)NCc2ccncc2)n1` [KK-1o, 1-[4-(aminosulfonyl)-2-{[(pyridin-4-ylmethyl)amino]carbonyl}phenyl]-N-ethyl-5-methyl-1H-pyrazole-3-carboxamide], for which the IC50 was 4530 nM.

With `NS(=O)(=O)c1ccc(-n2nc3c(c2CN2CCOCC2)CCCC3)cc1` [II-1c, 4-[3-(morpholin-4-ylmethyl)-4,5,6,7-tetrahydro-2H-indazol-2-yl]benzenesulfonamide], the IC50 was at least 5000 nM.

`NS(=O)(=O)c1ccc(-n2nc(CNCC3CCCCC3)cc2Cc2ccc(Cl)cc2)cc1` [QQ-1b, 4-[5-(4-chlorobenzyl)-3-{[(cyclohexylmethyl)amino]methyl}-1H-pyrazol-1-yl]benzenesulfonamide]: the IC50 amounted to 281 nM.

Consider `CN(CCc1ccccn1)Cc1cc(Cc2ccc(Cl)cc2)n(-c2ccc(S(N)(=O)=O)cc2)n1` [QQ-1c, 4-[5-(4-chlorobenzyl)-3-{[methyl(2-pyridin-2-ylethyl)amino]methyl}-1H-pyrazol-1-yl]benzenesulfonamide], for which the IC50 amounted to 380 nM.

Turning to `CN(Cc1cc(Cc2ccc(Cl)cc2)n(-c2ccc(S(N)(=O)=O)cc2)n1)C1CCCCC1` [QQ-1o, 4-[5-(4-chlorobenzyl)-3-{[cyclohexyl(methyl)amino]methyl}-1H-pyrazol-1-yl]benzenesulfonamide], the IC50 was found to be 308 nM.

Consider `C[C@@H]1CN(Cc2cc(Cc3ccccc3)n(-c3ccc(S(N)(=O)=O)cc3)n2)C[C@H](C)O1` [QQ-1d, 4-(5-benzyl-3-{[(2R,6S)-2,6-dimethylmorpholin-4-yl]methyl}-1H-pyrazol-1-yl)benzenesulfonamide], for which the IC50 was determined as 400 nM.

Turning to `NS(=O)(=O)c1ccc(-n2nc(CN3CCOCC3)cc2Cc2ccc(Cl)cc2)cc1` [QQ-1a, 4-[5-(4-chlorobenzyl)-3-(morpholin-4-ylmethyl)-1H-pyrazol-1-yl]benzenesulfonamide], the IC50 was determined as 563 nM.

`CCCCN(C)Cc1cc(Cc2ccc(Br)cc2)n(-c2ccc(S(N)(=O)=O)cc2F)n1` [QQ-1f]: the IC50 was determined as 171 nM.

Take `Cc1cccc(Cc2cc(CN3CCCC(C#N)C3)nn2-c2ccc(S(N)(=O)=O)cc2F)c1` (centres unmarked) [PP-1a, 4-[3-[(3-cyanopiperidin-1-yl)methyl]-5-(3-methylbenzyl)-1H-pyrazol-1-yl]-3-fluorobenzenesulfonamide]: the IC50 stood at 168 nM.

Consider `CCOC(=O)c1cc(C)n(-c2ccc(S(N)(=O)=O)cn2)n1` [mm-1, ethyl 1-[5-(aminosulfonyl)pyridin-2-yl]-5-methyl-1H-pyrazole-3-carboxylate], for which the IC50 amounted to 1050 nM.

On to `NS(=O)(=O)c1ccc(-n2nc(CN3CC=CCC3)cc2Cc2ccccc2)cc1` [QQ-1l, 4-[5-benzyl-3-(3,6-dihydropyridin-1(2H)-ylmethyl)-1H-pyrazol-1-yl]benzenesulfonamine], for which the IC50 worked out at 552 nM.

Regarding `NS(=O)(=O)c1ccc(-n2nc(CN3CC=CCC3)cc2Cc2ccccc2)c(F)c1` [QQ-1g, 4-[5-benzyl-3-(3,6-dihydropyridin-1(2H)-ylmethyl)-1H-pyrazol-1-yl]-3-fluorobenzenesulfonamide], the IC50 came to 354 nM.

`Cc1cc(C(=O)O)nn1-c1ccc(S(N)(=O)=O)cc1` [mm-2a, 1-[4-(aminosulfonyl)phenyl]-5-methyl-1H-pyrazole-3-carboxylic acid]: the IC50 is at least 5000 nM.

Turning to `CCNCc1cc(S(N)(=O)=O)ccc1-n1nc(C(F)(F)F)c2c1CCCC2` [LL-1, 3-[(Ethylamino)methyl]-4-[3-(trifluoromethyl)-4,5,6,7-tetrahydro-1H-indazol-1-yl]-benzene-sulfonamide], the IC50 is at least 5000 nM.

The values above are taken from patent US20100256357A1, “HETEROCYCLES USEFUL AS INHIBITORS OF CARBONIC ANHYDRASE” (Agouron Pharmaceuticals, Inc., priority 2006, published 2010).
